Experimental data as given in ChEMBL document CHEMBL1201862, “PubChem BioAssay data set” (2004).
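These data come from cells grown in 96-well plates and exposed to compound for 48 hours at five concentrations. The concentration for 50% growth inhibition is given as GI50.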 Activity calls are given as the source filed them. Cut-off read from the data, not from the text of the source: active = GI50 up to about 1.1 µM and inactive = higher.

Experiments:
Assay in all cases: growth of human tumour cells (NCI), 48 h
A549 = system: A549
COLO 205 = system: COLO 205
HCT-116 = system: HCT-116
IGROV-1 = system: IGROV-1
KM12 = system: KM12
M14 = system: M14
MCF7 = system: MCF7
Malme-3M = system: Malme-3M
NCI-H226 = system: NCI-H226
OVCAR-3 = system: OVCAR-3
OVCAR-4 = system: OVCAR-4
SF-295 = system: SF-295
SK-MEL-28 = system: SK-MEL-28
SN12C = system: SN12C
SNB-75 = system: SNB-75
U-251 = system: U-251
UACC-62 = system: UACC-62
UO-31 = system: UO-31
RPMI-8226 = system: RPMI-8226
SF-539 = system: SF-539

Structure (SMILES)	GI50 (A549)	GI50 (COLO 205)	GI50 (HCT-116)	GI50 (IGROV-1)	GI50 (KM12)	GI50 (M14)	GI50 (MCF7)	GI50 (Malme-3M)	GI50 (NCI-H226)	GI50 (OVCAR-3)	GI50 (OVCAR-4)	GI50 (SF-295)	GI50 (SK-MEL-28)	GI50 (SN12C)	GI50 (SNB-75)	GI50 (U-251)	GI50 (UACC-62)	GI50 (UO-31)	GI50 (RPMI-8226)	GI50 (SF-539)
Cc1cc(C)c(S(=O)(=O)N2CCCN(S(=O)(=O)c3c(C)cc(C)cc3C)OCCCO2)c(C)c1	> 100 µM (inactive)	> 100 µM (inactive)	> 100 µM (inactive)	> 100 µM (inactive)	> 100 µM (inactive)	> 100 µM (inactive)	> 100 µM (inactive)	> 100 µM (inactive)	> 100 µM (inactive)	> 100 µM (inactive)	79.4 µM (inactive)	> 100 µM (inactive)	> 100 µM (inactive)	> 100 µM (inactive)	57.1 µM (inactive)	> 100 µM (inactive)	> 100 µM (inactive)	> 100 µM (inactive)	–	–
OC1(C(Sc2cc(C(F)(F)F)cc(C(F)(F)F)c2)Sc2cc(C(F)(F)F)cc(C(F)(F)F)c2)C=CCCC1 (stereo unspecified)	1.63 µM (inactive)	1.99 µM (inactive)	2.12 µM (inactive)	2.38 µM (inactive)	1.73 µM (inactive)	1.81 µM (inactive)	1.49 µM (inactive)	2.77 µM (inactive)	–	2.04 µM (inactive)	1.74 µM (inactive)	1.86 µM (inactive)	2.71 µM (inactive)	2.14 µM (inactive)	2.15 µM (inactive)	–	1.99 µM (inactive)	1.38 µM (inactive)	1.47 µM (inactive)	–
CCOC(=O)C1=C(C)C2C3C(=O)NC(=O)C3C1(C)C1C(=O)NC(=O)C21 (stereo unspecified)	> 100 µM (inactive)	> 100 µM (inactive)	> 100 µM (inactive)	> 100 µM (inactive)	> 100 µM (inactive)	> 100 µM (inactive)	–	> 100 µM (inactive)	< 0.01 µM (active)	59.7 µM (inactive)	> 100 µM (inactive)	> 100 µM (inactive)	> 100 µM (inactive)	> 100 µM (inactive)	> 100 µM (inactive)	> 100 µM (inactive)	> 100 µM (inactive)	> 100 µM (inactive)	> 100 µM (inactive)	> 100 µM (inactive)
O=C(Nc1ccc(Cl)cc1)Oc1ccc(C(=S)Nc2ccc(Br)cc2)cc1	10 µM (inactive)	9.75 µM (inactive)	10.3 µM (inactive)	2.05 µM (inactive)	2.55 µM (inactive)	3.43 µM (inactive)	11.7 µM (inactive)	20.2 µM (inactive)	–	16.1 µM (inactive)	7.4 µM (inactive)	0.438 µM (active)	10.4 µM (inactive)	–	–	20.5 µM (inactive)	1.63 µM (inactive)	18.2 µM (inactive)	23.5 µM (inactive)	15.5 µM (inactive)
